Among the data in patent US8530648B2, “Diaza-spiro[5.5]undecanes” (Novartis AG, priority 2009, dated 2013) are Ki and inhibition values, retold here.

One test concerns the target hOx2R (Homo sapiens (Human), UniProt O43614). Description: Calcium accumulation in cells (FLIPR), hOx2R. It counts as cell-based. Particulars: for Ki: inhibition of orexin A induced calcium accumulation, Cheng and Prusoff correction; for inhibition at 10 µM: measured at a concentration of 10 μM of compound. The method, then: (§1) Calcium Accumulation in Cells (FLIPR):
(§2) Cells expressing human orexin 1 or human orexin 2 receptors, were seeded at 8,000 cells/well in 384 well black-walled clear bottom, poly-D-lysine coated plates. After 24 h, the medium was removed and cells were washed once with phosphate buffered saline and serum-deprived overnight in assay buffer (130 mM NaCl, 5.4 mM KCl, 1.8 mM CaCl2, 0.8 mM MgSO4, 0.9 mM NaH2PO4, 25 mM glucose, 20 mM HEPES, pH 7.4) containing bovine serum albumin (1% w/v).
(§3) On the day of the experiment, the cells seeded in black plates were treated with assay buffer containing the Ca^2+ sensitive fluorescent dye Fluo-4-AM (2 μM), and probenecid (0.1 mM). After 1 h plates were washed twice with, and resuspended in, assay buffer containing probenecid (0.1 mM) using a multi plate washer. […] Fluorescence measurements were then continued every 1 S for 120 S followed by every 4 S for 240 S.
(§4) The measurements were typically made in two sequences:
(§5) Compounds of formula I were tested usually in a concentration range from 10^−9 M to 10^−5 M.
(§6) In the second round, performed one hour later (to allow for equilibration), Orexin A was tested either in the absence (calibration curves, Orexin A agonist controls) or in the presence of compounds of formula I to determine antagonism.

For another test, the target named is hOx1R (Homo sapiens (Human), UniProt O43613). The test is described as follows: Calcium accumulation in cells (FLIPR), hOx1R. The test is classed as cell-based. The note with it: for Ki: inhibition of orexin A induced calcium accumulation, Cheng and Prusoff correction; for inhibition at 10 µM: measured at a concentration of 10 μM of compound. The method, then:
as §1, §2, §3, §4, §5, §6

Molecules are shown by their SMILES.

Sequence of hOx2R (O43614 whole entry): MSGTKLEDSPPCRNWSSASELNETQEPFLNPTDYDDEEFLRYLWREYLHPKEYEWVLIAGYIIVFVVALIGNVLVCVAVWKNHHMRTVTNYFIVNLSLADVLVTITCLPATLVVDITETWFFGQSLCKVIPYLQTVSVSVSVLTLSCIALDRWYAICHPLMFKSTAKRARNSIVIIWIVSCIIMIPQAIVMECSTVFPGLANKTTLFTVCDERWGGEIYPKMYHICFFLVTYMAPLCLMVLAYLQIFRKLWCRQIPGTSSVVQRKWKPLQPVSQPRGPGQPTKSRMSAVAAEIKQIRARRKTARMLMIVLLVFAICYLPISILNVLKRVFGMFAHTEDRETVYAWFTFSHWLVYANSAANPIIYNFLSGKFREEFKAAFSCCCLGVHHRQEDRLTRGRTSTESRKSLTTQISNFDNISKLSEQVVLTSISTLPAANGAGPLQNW
Sequence of hOx1R (O43613 whole entry): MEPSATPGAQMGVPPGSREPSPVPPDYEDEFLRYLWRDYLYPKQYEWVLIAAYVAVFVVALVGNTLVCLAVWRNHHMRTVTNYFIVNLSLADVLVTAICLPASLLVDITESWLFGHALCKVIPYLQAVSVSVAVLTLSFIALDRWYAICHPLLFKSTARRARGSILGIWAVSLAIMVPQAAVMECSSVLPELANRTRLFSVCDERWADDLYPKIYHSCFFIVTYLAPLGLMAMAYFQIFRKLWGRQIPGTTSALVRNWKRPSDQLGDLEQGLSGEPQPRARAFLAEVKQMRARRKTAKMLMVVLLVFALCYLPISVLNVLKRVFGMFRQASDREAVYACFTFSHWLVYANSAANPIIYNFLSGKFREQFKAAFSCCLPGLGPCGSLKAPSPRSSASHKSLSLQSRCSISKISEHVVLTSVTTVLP

As for `Cc1cc(C)cc(CN2CCCC3(CCN(c4cnc5ccccc5n4)CC3)C2=O)c1` [Example 16, 2-(3,5-dimethylbenzyl)-9-(quinoxalin-2-yl)-2,9-diazaspiro[5.5]undecan-1-one], the Ki amounted to 113 nM on hOx2R and 1190 nM on hOx1R.

Regarding `Cc1cccc(CN2CCCC3(CCN(c4cnc5ccccc5n4)CC3)C2=O)c1C` [Example 17, 2-(2,3-dimethylbenzyl)-9-(quinoxalin-2-yl)-2,9-diazaspiro[5.5]undecan-1-one], the figures for the Ki on hOx2R and at hOx1R were 247 nM and 1720 nM, respectively.

In the case of `COc1cccc(CN2CCCC3(CCN(c4cnc5ccccc5n4)CC3)C2=O)c1OC` [Example 18, 2-(2,3-dimethoxybenzyl)-9-(quinoxalin-2-yl)-2,9-diazaspiro[5.5]undecan-1-one], on hOx2R, the inhibitory constant (Ki) came to 782 nM. Moreover, at hOx1R, the inhibition at 10 µM came out at 3%.

For `Cc1ccccc1CN1CCCC2(CCN(c3cnc4ccccc4n3)CC2)C1=O` [Example 19, 2-(2-methylbenzyl)-9-(quinoxalin-2-yl)-2,9-diazaspiro[5.5]undecan-1-one], the inhibition constant (Ki) at hOx2R came out at 495 nM. Also, the inhibition at 10 µM on hOx1R was determined as 12%.

Consider `Cc1ccc(C)c(CN2CCCC3(CCN(c4cnc5ccccc5n4)CC3)C2=O)c1` [Example 20, 2-(2,5-dimethylbenzyl)-9-(quinoxalin-2-yl)-2,9-diazaspiro[5.5]undecan-1-one], for which the inhibition constant Ki on hOx2R turned out to be 205 nM; on hOx1R it was 945 nM.

Turning to `Cn1ccc2c(CN3CCCC4(CCN(c5cnc6ccccc6n5)CC4)C3=O)cccc21` [Example 26, 2-((1-methyl-1H-indol-4-yl)methyl)-9-(quinoxalin-2-yl)-2,9-diazaspiro[5.5]undecan-1-one], the inhibition constant (Ki) on hOx2R worked out at 168 nM; at hOx1R it was 614 nM.

Regarding `O=C1N(Cc2cccc(Cl)c2)CCCC12CCN(c1nc3ccccc3[nH]1)CC2` [Example 28, 9-(1H-benzo[d]imidazol-2-yl)-2-(3-chlorobenzyl)-2,9-diazaspiro[5.5]undecan-1-one], the Ki on hOx2R turned out to be 160 nM. The inhibition at 10 µM at hOx1R was 33%.

As to `O=C1N(Cc2cccc(Cl)c2)CCCC12CCN(c1nccc(-c3ccccc3)n1)CC2` [Example 29, 2-(3-chlorobenzyl)-9-(4-phenylpyrimidin-2-yl)-2,9-diazaspiro[5.5]undecan-1-one], the inhibitory constant (Ki) on hOx2R was found to be 614 nM; at hOx1R, 1700 nM.

Turning to `Cn1c(CN2CCCC3(CCN(c4cnc5ccccc5n4)CC3)C2=O)nc2ccccc21` [Example 30, 2-((1-methyl-1H-benzo[d]imidazol-2-yl)methyl)-9-(quinoxalin-2-yl)-2,9-diazaspiro[5.5]undecan-1-one], the inhibition at 10 µM on hOx2R was 33%; at hOx1R, 17%.

`COc1ccc(-c2nnc(CN3CCCC4(CCN(c5cnc6ccccc6n5)CC4)C3=O)o2)cc1` [Example 31, 2-((5-(4-methoxyphenyl)-1,3,4-oxadiazol-2-yl)methyl)-9-(quinoxalin-2-yl)-2,9-diazaspiro[5.5]undecan-1-one]: the Ki on hOx2R was determined as 1180 nM; on hOx1R, 3690 nM.

Regarding `Cc1noc(-c2ccccc2)c1CN1CCCC2(CCN(c3cnc4ccccc4n3)CC2)C1=O` [Example 32, 2-((3-methyl-5-phenylisoxazol-4-yl)methyl)-9-(quinoxalin-2-yl)-2,9-diazaspiro[5.5]undecan-1-one], the results for the Ki at hOx2R and at hOx1R were 138 nM and 1280 nM, respectively.

For the molecule `Cc1cc(CN2CCCC3(CCN(c4cnc5ccccc5n4)CC3)C2=O)c2ccccc2n1` [Example 33, 2-((2-methylquinolin-4-yl)methyl)-9-(quinoxalin-2-yl)-2,9-diazaspiro[5.5]undecan-1-one], the inhibitory constant (Ki) on hOx2R turned out to be 282 nM; on hOx1R it was 2360 nM.

As for `O=C1N(Cc2cccc(-n3cccc3)c2)CCCC12CCN(c1cnc3ccccc3n1)CC2` [Example 35, 2-(3-(1H-pyrrol-1-yl)benzyl)-9-(quinoxalin-2-yl)-2,9-diazaspiro[5.5]undecan-1-one], at hOx2R, the Ki was determined as 272 nM. In addition, at hOx1R, the inhibition at 10 µM is 26%.

With `O=C1N(Cc2noc3ccccc23)CCCC12CCN(c1cnc3ccccc3n1)CC2` [Example 36, 2-(benzo[d]isoxazol-3-ylmethyl)-9-(quinoxalin-2-yl)-2,9-diazaspiro[5.5]undecan-1-one], the figures for the inhibition constant (Ki) at hOx2R and at hOx1R were 197 nM and 591 nM, respectively.

As to `Cc1noc(C)c1CN1CCCC2(CCN(c3cnc4ccccc4n3)CC2)C1=O` [Example 37, 2-((3,5-dimethylisoxazol-4-yl)methyl)-9-(quinoxalin-2-yl)-2,9-diazaspiro[5.5]undecan-1-one], the inhibition at 10 µM amounted to 22% at hOx2R and 8% at hOx1R.

Turning to `O=C1N(Cc2c[nH]c3ccccc23)CCCC12CCN(c1nc3ccccc3o1)CC2` [Example 40, 2-((1H-indol-3-yl)methyl)-9-(benzo[d]oxazol-2-yl)-2,9-diazaspiro[5.5]undecan-1-one], the Ki on hOx2R was 98 nM; at hOx1R, 1020 nM.

In the case of `COc1cc(CN2CCCC3(CCN(c4cnc5ccccc5n4)CC3)C2=O)ccn1` [Example 45, 2-((2-methoxypyridin-4-yl)methyl)-9-(quinoxalin-2-yl)-2,9-diazaspiro[5.5]undecan-1-one], the inhibition at 10 µM at hOx2R stood at 43%; at hOx1R, 19%.

As for `Cn1cc(-c2ccccc2CN2CCCC3(CCN(c4cnc5ccccc5n4)CC3)C2=O)cn1` [Example 51, 2-(2-(1-methyl-1H-pyrazol-4-yl)benzyl)-9-(quinoxalin-2-yl)-2,9-diazaspiro[5.5]undecan-1-one], the inhibition at 10 µM on hOx2R is 32%; on hOx1R, 57%.

Consider `O=C1N(Cc2c[nH]c3ccccc23)CCCC12CCN(c1nc3ccccc3s1)CC2` [Example 52, 2-((1H-indol-3-yl)methyl)-9-(benzo[d]thiazol-2-yl)-2,9-diazaspiro[5.5]undecan-1-one], for which the Ki on hOx2R worked out at 178 nM; on hOx1R it was 1360 nM.

With `O=C1N(Cc2ccc3nonc3c2)CCCC12CCN(c1cnc3ccccc3n1)CC2` [Example 53, 2-(benzo[c][1,2,5]oxadiazol-5-ylmethyl)-9-(quinoxalin-2-yl)-2,9-diazaspiro[5.5]undecan-1-one], the inhibition at 10 µM was 24% on hOx2R and 37% on hOx1R.

Take `O=C1N(Cc2cccc3cnccc23)CCCC12CCN(c1cnc3ccccc3n1)CC2` [Example 55, 2-(isoquinolin-5-ylmethyl)-9-(quinoxalin-2-yl)-2,9-diazaspiro[5.5]undecan-1-one]: the Ki at hOx2R worked out at 151 nM; at hOx1R it was 932 nM.

Take `O=C1N(Cc2ccnc(N3CCOCC3)c2)CCCC12CCN(c1cnc3ccccc3n1)CC2` [Example 56, 2-((2-morpholinopyridin-4-yl)methyl)-9-(quinoxalin-2-yl)-2,9-diazaspiro[5.5]undecan-1-one]: the inhibition constant (Ki) worked out at 483 nM at hOx2R and 2040 nM on hOx1R.

`O=C1N(Cc2cccc(-c3ccncc3)c2)CCCC12CCN(c1cnc3ccccc3n1)CC2` [Example 58, 2-(3-(pyridin-4-yl)benzyl)-9-(quinoxalin-2-yl)-2,9-diazaspiro[5.5]undecan-1-one]: the Ki at hOx2R came to 217 nM; on hOx1R, 570 nM.

On to `O=C1N(Cc2cccc(N3CCOCC3)c2)CCCC12CCN(c1cnc3ccccc3n1)CC2` [Example 59, 2-(3-morpholinobenzyl)-9-(quinoxalin-2-yl)-2,9-diazaspiro[5.5]undecan-1-one], for which the inhibition at 10 µM at hOx2R was determined as 31%; on hOx1R, 12%.

Regarding `O=C1N(Cc2ccccn2)CCCC12CCN(c1cnc3ccccc3n1)CC2` [Example 62, 2-(pyridin-2-ylmethyl)-9-(quinoxalin-2-yl)-2,9-diazaspiro[5.5]undecan-1-one], at hOx2R, the Ki was determined as 833 nM. Besides, the inhibition at 10 µM on hOx1R was 29%.

As for `O=C1N(Cc2cccnc2)CCCC12CCN(c1cnc3ccccc3n1)CC2` [Example 64, 2-(pyridin-3-ylmethyl)-9-(quinoxalin-2-yl)-2,9-diazaspiro[5.5]undecan-1-one], the Ki at hOx2R came to 718 nM. For the same molecule, the inhibition at 10 µM on hOx1R stood at 32%.

For `O=C1N(Cn2nnc3ccccc32)CCCC12CCN(c1cnc3ccccc3n1)CC2` [Example 66, 2-((1H-benzo[d][1,2,3]triazol-1-yl)methyl)-9-(quinoxalin-2-yl)-2,9-diazaspiro[5.5]undecan-1-one], the figures for the Ki at hOx2R and on hOx1R were 302 nM and 1710 nM, respectively.

On to `O=C1N(Cc2ccncc2)CCCC12CCN(c1cnc3ccccc3n1)CC2` [Example 67, 2-(pyridin-4-ylmethyl)-9-(quinoxalin-2-yl)-2,9-diazaspiro[5.5]undecan-1-one], for which the values for the inhibition at 10 µM on hOx2R and at hOx1R were 27% and 11%, respectively.

On to `Cc1cc(CN2CCCC3(CCN(c4cnc5ccccc5n4)CC3)C2=O)ccn1` [Example 68, 2-((2-methylpyridin-4-yl)methyl)-9-(quinoxalin-2-yl)-2,9-diazaspiro[5.5]undecan-1-one], for which the Ki at hOx2R came out at 830 nM. On hOx1R, the inhibition at 10 µM was 29%.

With `CN1CCc2c(CN3CCCC4(CCN(c5cnc6ccccc6n5)CC4)C3=O)cccc21` [Example 145, 2-((1-methylindolin-4-yl)methyl)-9-(quinoxalin-2-yl)-2,9-diazaspiro[5.5]undecan-1-one], the Ki at hOx2R came to 636 nM.

For orientation: Ki means a measure of affinity in units of concentration, obtained from inhibition or displacement. The inhibition is the change of the read-out against control, counted positive when it falls.
